Experimental data from ChEMBL document CHEMBL5512655, “Discovery of indolylacryloyl-derived oxacins as novel potential broad-spectrum antibacterial candidates” (Eur J Med Chem, 2024).
In brackets after ≈: the same amount, converted by molar mass.

Columns and labels:
Assay type in all cases: functional
Escherichia coli [1] = assay: Potency index, ratio of norfloxacin MIC to test compound MIC for antibacterial activity against Escherichia coli assessed as inhibition of bacterial growth measured after 24 hrs incubation
Staphylococcus aureus [2] = assay: Antibacterial activity against Staphylococcus aureus ATCC 25923 assessed as inhibition of bacterial growth measured after 24 hrs incubation
Staphylococcus aureus [3] = assay: Antibacterial activity against methicillin-resistant Staphylococcus aureus N315 assessed as inhibition of bacterial growth measured after 24 hrs incubation
Escherichia coli [4] = assay: Antibacterial activity against Escherichia coli assessed as inhibition of bacterial growth measured after 24 hrs incubation
Klebsiella pneumoniae = assay: Antibacterial activity against Klebsiella pneumonia assessed as inhibition of bacterial growth measured after 24 hrs incubation
Enterococcus faecalis = assay: Antibacterial activity against Enterococcus faecalis assessed as inhibition of bacterial growth measured after 24 hrs incubation
Pseudomonas aeruginosa [5] = assay: Antibacterial activity against Pseudomonas aeruginosa assessed as inhibition of bacterial growth measured after 24 hrs incubation
Acinetobacter baumannii = assay: Antibacterial activity against Acinetobacter baumannii assessed as inhibition of bacterial growth measured after 24 hrs incubation
Escherichia coli [6] = assay: Potency index, ratio of norfloxacin MIC to test compound MIC for antibacterial activity against Escherichia coli ATCC 25922 assessed as inhibition of bacterial growth measured after 24 hrs incubation
Escherichia coli [7] = assay: Antibacterial activity against Escherichia coli ATCC 25922 assessed as inhibition of bacterial growth measured after 24 hrs incubation
Staphylococcus aureus [8] = assay: Antibacterial activity against Staphylococcus aureus assessed as inhibition of bacterial growth measured after 24 hrs incubation
Staphylococcus aureus [9] = assay: Antibacterial activity against Staphylococcus aureus ATCC 29213 assessed as inhibition of bacterial growth measured after 24 hrs incubation
Pseudomonas aeruginosa [10] = assay: Antibacterial activity against Pseudomonas aeruginosa ATCC 27853 assessed as inhibition of bacterial growth measured after 24 hrs incubation

Row | Structure (SMILES) | Ratio (Escherichia coli [1]) | MIC (Staphylococcus aureus [2]) [µg/mL] | MIC (Staphylococcus aureus [3]) [µg/mL] | MIC (Escherichia coli [4]) [µg/mL] | MIC (Klebsiella pneumoniae) [µg/mL] | MIC (Enterococcus faecalis) [µg/mL] | MIC (Pseudomonas aeruginosa [5]) [µg/mL] | MIC (Acinetobacter baumannii) [µg/mL] | Ratio (Escherichia coli [6]) | MIC (Escherichia coli [7]) [µg/mL] | MIC (Staphylococcus aureus [8]) [µg/mL] | MIC (Staphylococcus aureus [9]) [µg/mL] | MIC (Pseudomonas aeruginosa [10]) [µg/mL]
1 | CCCCn1cc(C(=O)O)c(=O)c2cc(F)c(N3CCN(C(=O)/C(C#N)=C/c4cn(CC(=O)OCC)c5ccccc45)CC3)cc21 | 8 | 4 (≈ 6.37 µM) | 2 (≈ 3.19 µM) | 0.25 (≈ 0.398 µM) | 16 (≈ 25.5 µM) | 1 (≈ 1.59 µM) | 4 (≈ 6.37 µM) | 0.5 (≈ 0.797 µM) | 2 | 0.25 (≈ 0.398 µM) | 1 (≈ 1.59 µM) | 1 (≈ 1.59 µM) | 1 (≈ 1.59 µM)
2 | CCn1cc(C(=O)O)c(=O)c2cc(F)c(N3CCN(C(=O)/C(C#N)=C/c4cn(Cc5cccc(Cl)c5)c5ccccc45)CC3)cc21 | – | 2 (≈ 3.13 µM) | 1 (≈ 1.57 µM) | 16 (≈ 25.1 µM) | 0.5 (≈ 0.784 µM) | 8 (≈ 12.5 µM) | 32 (≈ 50.1 µM) | 8 (≈ 12.5 µM) | – | 8 (≈ 12.5 µM) | 32 (≈ 50.1 µM) | 4 (≈ 6.27 µM) | 0.25 (≈ 0.392 µM)
3 | CCn1cc(C(=O)O)c(=O)c2cc(F)c(N3CCN(C(=O)/C(C#N)=C/c4c[nH]c5cccc(Cl)c45)CC3)cc21 | – | 4 (≈ 7.3 µM) | 8 (≈ 14.6 µM) | 4 (≈ 7.3 µM) | 0.5 (≈ 0.912 µM) | 8 (≈ 14.6 µM) | 32 (≈ 58.4 µM) | 2 (≈ 3.65 µM) | – | 2 (≈ 3.65 µM) | 1 (≈ 1.82 µM) | 2 (≈ 3.65 µM) | 1 (≈ 1.82 µM)
4 | CCn1cc(C(=O)O)c(=O)c2cc(F)c(N3CCN(C(=O)/C(C#N)=C/c4cn(Cc5ccccc5F)c5ccccc45)CC3)cc21 | – | 16 (≈ 25.7 µM) | 0.25 (≈ 0.402 µM) | 0.5 (≈ 0.804 µM) | 1 (≈ 1.61 µM) | 16 (≈ 25.7 µM) | 1 (≈ 1.61 µM) | 0.5 (≈ 0.804 µM) | – | 0.25 (≈ 0.402 µM) | 32 (≈ 51.5 µM) | 32 (≈ 51.5 µM) | 0.5 (≈ 0.804 µM)
5 | CCn1cc(C(=O)O)c(=O)c2cc(F)c(N3CCN(C(=O)/C(C#N)=C/c4cn(Cc5ccccc5Cl)c5ccccc45)CC3)cc21 | – | 32 (≈ 50.1 µM) | 32 (≈ 50.1 µM) | 1 (≈ 1.57 µM) | 32 (≈ 50.1 µM) | 16 (≈ 25.1 µM) | 16 (≈ 25.1 µM) | 8 (≈ 12.5 µM) | – | 0.25 (≈ 0.392 µM) | 256 (≈ 401 µM) | 64 (≈ 100 µM) | 1 (≈ 1.57 µM)
6 | CCCCCCCCn1cc(C(=O)O)c(=O)c2cc(F)c(N3CCN(C(=O)/C(C#N)=C/c4cn(CC(=O)OCC)c5ccccc45)CC3)cc21 | – | 4 (≈ 5.85 µM) | 8 (≈ 11.7 µM) | 0.25 (≈ 0.366 µM) | 4 (≈ 5.85 µM) | 1 (≈ 1.46 µM) | 16 (≈ 23.4 µM) | 2 (≈ 2.92 µM) | – | 0.5 (≈ 0.731 µM) | 32 (≈ 46.8 µM) | 256 (≈ 374 µM) | 16 (≈ 23.4 µM)
7 | CCCCCn1cc(/C=C(\C#N)C(=O)N2CCN(c3cc4c(cc3F)c(=O)c(C(=O)O)cn4CC)CC2)c2ccccc21 | – | 1 (≈ 1.71 µM) | 16 (≈ 27.4 µM) | 2 (≈ 3.43 µM) | 0.5 (≈ 0.857 µM) | 8 (≈ 13.7 µM) | 4 (≈ 6.85 µM) | 2 (≈ 3.43 µM) | – | 4 (≈ 6.85 µM) | 32 (≈ 54.8 µM) | 8 (≈ 13.7 µM) | 0.5 (≈ 0.857 µM)
8 | CCn1cc(/C=C(\C#N)C(=O)N2CCN(c3cc4c(cc3F)c(=O)c(C(=O)O)cn4CC)CC2)c2ccccc21 | – | 0.25 (≈ 0.462 µM) | 0.25 (≈ 0.462 µM) | 64 (≈ 118 µM) | 0.25 (≈ 0.462 µM) | 0.5 (≈ 0.923 µM) | 4 (≈ 7.39 µM) | 1 (≈ 1.85 µM) | – | 2 (≈ 3.69 µM) | 0.25 (≈ 0.462 µM) | 0.25 (≈ 0.462 µM) | 1 (≈ 1.85 µM)
9 | CCCn1cc(/C=C(\C#N)C(=O)N2CCN(c3cc4c(cc3F)c(=O)c(C(=O)O)cn4CC)CC2)c2ccccc21 | – | 4 (≈ 7.2 µM) | 2 (≈ 3.6 µM) | 0.5 (≈ 0.9 µM) | 0.25 (≈ 0.45 µM) | 1 (≈ 1.8 µM) | 0.5 (≈ 0.9 µM) | 0.25 (≈ 0.45 µM) | – | 0.25 (≈ 0.45 µM) | 0.5 (≈ 0.9 µM) | 1 (≈ 1.8 µM) | 1 (≈ 1.8 µM)
10 | CCn1cc(C(=O)O)c(=O)c2cc(F)c(N3CCN(C(=O)/C(C#N)=C/c4cn(CCCN5CCOCC5)c5ccccc45)CC3)cc21 | – | 0.25 (≈ 0.39 µM) | 0.25 (≈ 0.39 µM) | 1 (≈ 1.56 µM) | 0.25 (≈ 0.39 µM) | 1 (≈ 1.56 µM) | 0.25 (≈ 0.39 µM) | 0.5 (≈ 0.78 µM) | – | 1 (≈ 1.56 µM) | 2 (≈ 3.12 µM) | 0.25 (≈ 0.39 µM) | 1 (≈ 1.56 µM)
11 | CCn1cc(C(=O)O)c(=O)c2cc(F)c(N3CCN(C(=O)/C(C#N)=C/c4c[nH]c5ccc(Cl)cc45)CC3)cc21 | – | 16 (≈ 29.2 µM) | 1 (≈ 1.82 µM) | 0.25 (≈ 0.456 µM) | 1 (≈ 1.82 µM) | 1 (≈ 1.82 µM) | 2 (≈ 3.65 µM) | 1 (≈ 1.82 µM) | – | 0.25 (≈ 0.456 µM) | 1 (≈ 1.82 µM) | 2 (≈ 3.65 µM) | 0.25 (≈ 0.456 µM)
12 | C=CCn1cc(C(=O)O)c(=O)c2cc(F)c(N3CCN(C(=O)/C(C#N)=C/c4cn(CC(=O)OCC)c5ccccc45)CC3)cc21 | – | 64 (≈ 105 µM) | 128 (≈ 209 µM) | 1 (≈ 1.63 µM) | 1 (≈ 1.63 µM) | 0.25 (≈ 0.409 µM) | 256 (≈ 419 µM) | 8 (≈ 13.1 µM) | – | 32 (≈ 52.3 µM) | 16 (≈ 26.2 µM) | 16 (≈ 26.2 µM) | 4 (≈ 6.54 µM)
13 | CCn1cc(C(=O)O)c(=O)c2cc(F)c(N3CCN(C(=O)/C(C#N)=C/c4cn(CC5CCCCC5)c5ccccc45)CC3)cc21 | – | 16 (≈ 26.2 µM) | 16 (≈ 26.2 µM) | 1 (≈ 1.64 µM) | 1 (≈ 1.64 µM) | 32 (≈ 52.5 µM) | 2 (≈ 3.28 µM) | 1 (≈ 1.64 µM) | – | 4 (≈ 6.56 µM) | 32 (≈ 52.5 µM) | 1 (≈ 1.64 µM) | 1 (≈ 1.64 µM)
14 | CCn1cc(C(=O)O)c(=O)c2cc(F)c(N3CCN(C(=O)/C(C#N)=C/c4cn(CC(=O)O)c5ccccc45)CC3)cc21 | – | 0.5 (≈ 0.875 µM) | 0.5 (≈ 0.875 µM) | 0.5 (≈ 0.875 µM) | 0.25 (≈ 0.437 µM) | 0.5 (≈ 0.875 µM) | 0.5 (≈ 0.875 µM) | 0.25 (≈ 0.437 µM) | – | 0.5 (≈ 0.875 µM) | 2 (≈ 3.5 µM) | 1 (≈ 1.75 µM) | 0.5 (≈ 0.875 µM)
15 | CCn1cc(C(=O)O)c(=O)c2cc(F)c(N3CCN(C(=O)/C(C#N)=C/c4cn(CC(N)=O)c5ccccc45)CC3)cc21 | – | 8 (≈ 14 µM) | 0.25 (≈ 0.438 µM) | 0.5 (≈ 0.876 µM) | 1 (≈ 1.75 µM) | 16 (≈ 28 µM) | 8 (≈ 14 µM) | 8 (≈ 14 µM) | – | 0.25 (≈ 0.438 µM) | 32 (≈ 56.1 µM) | 16 (≈ 28 µM) | 1 (≈ 1.75 µM)
16 | CCn1cc(C(=O)O)c(=O)c2cc(F)c(N3CCN(C(=O)/C(C#N)=C/c4cn(Cc5ccc(C)cc5)c5ccccc45)CC3)cc21 | – | 2 (≈ 3.24 µM) | 1 (≈ 1.62 µM) | 16 (≈ 25.9 µM) | 0.5 (≈ 0.809 µM) | 8 (≈ 13 µM) | 32 (≈ 51.8 µM) | 8 (≈ 13 µM) | – | 8 (≈ 13 µM) | 32 (≈ 51.8 µM) | 4 (≈ 6.48 µM) | 0.25 (≈ 0.405 µM)
17 | CCn1cc(C(=O)O)c(=O)c2cc(F)c(N3CCN(C(=O)/C(C#N)=C/c4c[nH]c5c(C)cccc45)CC3)cc21 | – | 4 (≈ 7.58 µM) | 4 (≈ 7.58 µM) | 1 (≈ 1.9 µM) | 0.5 (≈ 0.948 µM) | 4 (≈ 7.58 µM) | 4 (≈ 7.58 µM) | 2 (≈ 3.79 µM) | – | 2 (≈ 3.79 µM) | 4 (≈ 7.58 µM) | 4 (≈ 7.58 µM) | 1 (≈ 1.9 µM)
